Where two headings read alike, the source gives them in different places.
Columns and labels:
[1] = test system: A549 cells; assay: MTT assay, percent survival of A549 cells; type: cell-based; conditions: A549; for IC50: Table 2, read-out: Calculated IC 50 (uM concentration)
Procedure: 1. Prepare a suspension of A549 cells at 2×10^5 cells per mL in supplemented DMEM/F12 growth medium.
2. Plate 2×10^4 cells per well in a 96 well cell culture plate by adding 100 μL of stock suspension to each well.
3. For each platinum compound (already in solution), prepare a readily usable stock solution in DMEM/F12 medium.
4. For each compound generate triplicate trials of 0, 10, 20, 30, 40, 50, 60, and 70 μM concentration. This is achieved in situ by adding appropriate volumes of stock solution to each well along with the volume of untreated medium necessary to generate the desired concentration in a final volume of 200 μL.
5. Gently agitate plates to mix contents. Incubate at 37° C., 7% CO2 for 45 hours.
6. Add 20 μL of 5 mg/mL MTT solution (in PBS) to each well.
7. Gently agitate plates to mix contents and incubate an additional 3 hours to allow product development.
8. Remove plates from incubator and agitate to cause settling of formazan product.
9. Aspirate out liquid contents of each well using needle and syringe and discard.
10. Add 200 μL DMSO to each well to dissolve formazan product.
11. Agitate plates until all of the formazan product is in solution and no purple crystals remain on the bottom surface of the wells.
12. Read the absorbance of each well at […] using Varian software for Cary 50 UV-vis Spectrophotometer with fiber optic probe accessory.
(§1) MTT assays are used for the quantitative determination of cellular proliferation and activation and for the quantitation of in vitro tumor cell sensitivity to anti-cancer compounds. The assay is based on the cleavage of the yellow tetrazolium salt MTT into purple colored formazan by metabolically active cells. Solubilized formazan product can be photometrically quantitated using an ELISA plate reader. A decrease in the number of living cells results in a decrease in total metabolic activity which leads to a decrease in color formation. Platinum complexes of the present invention were tested in MTT assays using A549 cells to determine anti-cancer cell activity. […] FIGS. 1, 2, and 4 show percent survival versus platinum complex concentration in graphical form.
as §1, with “FIGS. 8, 9,” for “FIGS. 1, 2,”, “and 11” for “and 4”

[2] = target: T1, Stat3 (Mus musculus, UniProt P42227); assay: EMSA of nuclear extracts, Stat3 DNA-binding activity to hSIE probe; type: biochemical; conditions: in vitro
T1 construct: Nuclear extracts were prepared from NIH3T3/hEGFR cell that overexpress human epidermal growth factor (EGF) receptor and stimulated with EGF; endogenous in cells; host or cells: NIH3T3/hEGFR fibroblasts, EGF-stimulated (6 ng/ml, 15 min), nuclear extract
T1 sequence (P42227 whole entry): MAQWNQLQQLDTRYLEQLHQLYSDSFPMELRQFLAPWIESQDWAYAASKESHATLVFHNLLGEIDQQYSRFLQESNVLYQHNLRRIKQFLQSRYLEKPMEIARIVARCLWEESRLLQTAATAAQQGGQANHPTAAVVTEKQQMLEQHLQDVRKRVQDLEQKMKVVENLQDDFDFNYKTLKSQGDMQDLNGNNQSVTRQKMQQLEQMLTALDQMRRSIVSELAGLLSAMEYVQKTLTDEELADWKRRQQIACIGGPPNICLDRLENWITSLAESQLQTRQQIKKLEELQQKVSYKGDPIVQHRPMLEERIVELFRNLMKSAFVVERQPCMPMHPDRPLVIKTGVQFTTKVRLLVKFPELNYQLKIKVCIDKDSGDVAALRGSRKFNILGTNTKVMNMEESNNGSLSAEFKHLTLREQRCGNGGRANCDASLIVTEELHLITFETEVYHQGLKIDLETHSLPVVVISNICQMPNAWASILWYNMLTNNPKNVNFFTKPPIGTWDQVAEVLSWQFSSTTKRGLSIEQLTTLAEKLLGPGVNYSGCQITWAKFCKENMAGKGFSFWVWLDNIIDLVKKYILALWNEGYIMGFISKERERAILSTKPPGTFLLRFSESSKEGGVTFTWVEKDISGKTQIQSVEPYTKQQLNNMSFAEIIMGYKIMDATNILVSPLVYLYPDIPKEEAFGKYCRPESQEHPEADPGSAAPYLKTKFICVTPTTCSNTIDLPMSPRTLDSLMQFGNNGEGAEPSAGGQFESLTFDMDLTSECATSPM
Procedure: Nuclear Extract Preparation and Analysis by EMSA of HK-Designated Platinum Complexes.
Nuclear extracts were prepared from NIH3T3/hEGFR cell that overexpress human epidermal growth factor (EGF) receptor and stimulated with EGF (6 ng/ml) for 15 min. Nuclear extracts were pre-incubated with compounds for 30 min at room temperature prior to incubation with radiolabeled probe. The ^32P-labeled oligonucleotide probe used is hSIE (high affinity sis-inducible element, m67 variant, 5′-[…]-3′) (SEQ ID NO:1) that binds both Stat1 and Stat3.
Other platinum (IV) complexes were evaluated for inhibitory activity against STAT DNA-binding in vitro.

[3] = linear trend from percent survival vs. concentration data of Table 1

Structure (SMILES) | Average Absorbance ([1]; Table 1, 10 μM) | Percent Survival ([1]; Table 1, 10 μM) [%] | Average Absorbance ([1]; Table 1, 20 μM) | Percent Survival ([1]; Table 1, 20 μM) [%] | Average Absorbance ([1]; Table 1, 30 μM) | Percent Survival ([1]; Table 1, 30 μM) [%] | Average Absorbance ([1]; Table 1, 40 μM) | Percent Survival ([1]; Table 1, 40 μM) [%] | Average Absorbance ([1]; Table 3, 10 μM) | Percent Survival ([1]; Table 3, 10 μM) [%] | Average Absorbance ([1]; Table 3, 20 μM) | Percent Survival ([1]; Table 3, 20 μM) [%] | Average Absorbance ([1]; Table 3, 30 μM) | Percent Survival ([1]; Table 3, 30 μM) [%] | Average Absorbance ([1]; Table 3, 40 μM) | Percent Survival ([1]; Table 3, 40 μM) [%] | Average Absorbance ([1]; Table 3, 50 μM) | Percent Survival ([1]; Table 3, 50 μM) [%] | Average Absorbance ([1]; Table 3, 60 μM) | Disruption of Stat3 activity / ability to bind its consensus binding sequence [2] | other results
[NH2][Pt]([NH2])([Cl])([Cl])([N+](=O)[O-])[o+]1c2cc(=O)ccc-2c(-c2ccccc2C(=O)O)c2ccc(O)cc21 [CPA-39] | 2.5313 | 107.2085 | 2.4307 | 102.9478 | 2.3599 | 99.9492 | 1.9611 | 83.0587 | 2.6556 | 108.7069 | 2.4616 | 100.7655 | 2.0894 | 85.5295 | 1.3568 | 55.5405 | 0.6566 | 26.8779 | 0.6086 | strongly disrupt Stat3 activity | Average Absorbance ([1]; Table 1, 50 μM): 1.0318; Percent Survival ([1]; Table 1, 50 μM): 43.7000%; Average Absorbance ([1]; Table 1, 60 μM): 0.7776; Percent Survival ([1]; Table 1, 60 μM): 32.9338%; Average Absorbance ([1]; Table 1, 70 μM): 0.9798; Percent Survival ([1]; Table 1, 70 μM): 41.4976%; IC50 [1, 3]: 56.4 µM; Percent Survival ([1]; Table 3, 60 μM): 24.9130%; Average Absorbance ([1]; Table 3, 70 μM): 0.6166; Percent Survival ([1]; Table 3, 70 μM): 25.2405%
O=C1C(Br)=CC2=C(c3ccccc3C(=O)[O-])C3C=C(Br)C([O-])=C(Br)C3OC2=C1Br.[NH2][Pt]([NH2])([Cl])([Cl])[N+](=O)[O-] (stereo not shown) [CPA-30] | – | – | – | – | – | – | – | – | – | – | – | – | – | – | – | – | – | – | – | strongly disrupt Stat3 activity | –
Nc1cccc2c(=O)[nH][n]([Pt]([NH2])([NH2])([Cl])([Cl])[N+](=O)[O-])c(=O)c12 [CPA-51] | 2.4925 | 105.5652 | 2.5760 | 109.1017 | 2.3214 | 98.3186 | 2.0616 | 87.3152 | 2.4744 | 101.2895 | 2.4868 | 101.7970 | 2.0998 | 85.9552 | 1.4758 | 60.4118 | 0.9352 | 38.2824 | 0.7084 | strongly disrupt Stat3 activity | Average Absorbance ([1]; Table 1, 50 μM): 1.3869; Percent Survival ([1]; Table 1, 50 μM): 58.7396%; Average Absorbance ([1]; Table 1, 60 μM): 0.8807; Percent Survival ([1]; Table 1, 60 μM): 37.3004%; Average Absorbance ([1]; Table 1, 70 μM): 1.0819; Percent Survival ([1]; Table 1, 70 μM): 45.8219%; IC50 [1, 3]: 61.2 µM; Percent Survival ([1]; Table 3, 60 μM): 28.9983%; Average Absorbance ([1]; Table 3, 70 μM): 0.7058; Percent Survival ([1]; Table 3, 70 μM): 28.8919%
N[N](c1cc([N+](=O)[O-])cc([N+](=O)[O-])c1)[Pt]([NH2])([NH2])([Cl])([Cl])[N+](=O)[O-] [CPA-43] | 2.4150 | 102.2828 | 1.8554 | 78.5820 | 2.1451 | 90.8517 | 1.3030 | 55.1861 | 2.5840 | 105.7759 | 2.2922 | 93.8311 | 1.4833 | 60.7188 | 0.6479 | 26.5218 | 0.4641 | 18.9979 | 0.6504 | strongly disrupt Stat3 activity | IC50 ([1]; extrapolated from incomplete data (10-40 uM; CPA-31 10-30 μM), outside the measured range): 49.6 µM; Percent Survival ([1]; Table 3, 60 μM): 26.6241%; Average Absorbance ([1]; Table 3, 70 μM): 0.5059; Percent Survival ([1]; Table 3, 70 μM): 20.7090%
